# Source: article PMC7395068, “The evolution of strategies to minimise the risk of human drug-induced liver injury (DILI) in drug discovery and development” (Archives of Toxicology, 2020)
# Read-outs that look alike come from different tables or passages of the source.
# Key:
# [1] = tested on: THLE or HepG2 cells, isolated mitochondria, BSEP; conditions: cited from earlier work
# [2] = Phase 3 clinical trials; ref Aleo et al. 2019; cited from earlier work
# [3] = cited from earlier work
# HepG2 cells [4] = conditions: In vitro Assay; ref O'Brien 2006; cited from earlier work
# HepG2 cells [5] = conditions: In vitro Assay; ref Tolosa 2012; cited from earlier work
# [6] = cited from earlier work; remark: listed apart in the source
# PHH [7] = conditions: cited from earlier work
# HepG2 [8] = conditions: cited from earlier work
# human hepatocytes = conditions: cited from earlier work
# PHH spheroids = conditions: cited from earlier work
# hu-MPCC = conditions: cited from earlier work
# RMPCC's = conditions: cited from earlier work
# HepG2 [9] = conditions: cited from earlier work; remark: listed apart in the source
# HepG2 [10] = tested on: HepG2; design: method as in Albrecht 2019; conditions: In vitro Assay; ref Albrecht 2019; cited from earlier work
# HepaRG cells = conditions: cited from earlier work
# [11] = tested on: isolated mouse liver mitochondria; conditions: In vitro Assay; ref Porceddu 2012; cited from earlier work
# rBsep = conditions: In vitro Assay; ref Dawson 2012; cited from earlier work
# [12] = Plasma free fraction (fu) and unbound Cmax (Cmax,u); format: in vitro ADME, human; conditions: unbound plasma Cmax
# [13] = tested on: primary human hepatocytes, NIH3T3 fibroblasts, BSEP, CYP3A4; conditions: cited from earlier work
# PHH [14] = conditions: cited from earlier work; remark: listed apart in the source
# hLiMTs [15] = conditions: cited from earlier work
# [16] = read-out: Human plasma Cmax; total plasma Cmax.tot, median of 9 literature references; cited from earlier work
# [17] = plasma free fraction; cited from earlier work
# hLiMTs [18] = assay: Combined HCI (HCS) and cellular ATP 3D assay in hLiMTs; conditions: for AC50 / minimal effective concentration: Homo sapiens
# HepaRG spheroids = assay: Combined HCI (HCS) and cellular ATP 3D assay in HepaRG spheroids; conditions: for AC50 / minimal effective concentration: Homo sapiens
# [19] = In vitro Assay, ref Albrecht 2019
# [20] = In vitro Assay, ref Khetani 2012
# [21] = In vitro Assay, ref Schadt 2015
# [22] = Microtissue model structural based (HCI), combined HCS and ATP, MEC < 25 × Cmax.tot cut-off
smiles,measurement,setting,value
"Cc1cc(OCCCS(C)(=O)=O)cc(C)c1-c1cccc(COc2ccc3c(c2)OC[C@H]3CC(=O)O)c1 [TAK-875, reference compound]",Partition HRM hybrid scoring model classification,[1]; ref Aleo et al. 2019,DILI concern
same,clinical liver finding,[2],liver injury
CC(=O)N[C@@H](CS)C(=O)O [acetylcysteine],"DILI +VE (5-8), DILI -VE (-4)",[3]; ref Chen 2016,-VE
same,DILI severity category,[3]; ref Chen 2016,vNo-DILI-Concern
same,Structural based (HCI),HepG2 cells [4],+VE (lowest HCI endpoint IC50 (or in the absence of dose–response < 100 µM) < 30 × total human plasma exposure levels (Cmax.tot))
same,Structural based (HCI),HepG2 cells [5],-VE
same,In vivo DILI,[6]; ref Albrecht 2019,-VE
same,In vivo DILI,[6]; ref O'Brien 2006,-VE
same,In vivo DILI,[6]; ref Tolosa 2012,-VE
same,Cytotoxicity PHH 48 hrs,PHH [7]; [19],-VE
same,Cytotoxicity HepG2 48 hrs,HepG2 [8]; [19],-VE
O=C1O[C@H]([C@@H](O)CO)C(O)=C1O [ascorbic acid],Cytotoxicity PHH 48 hrs,PHH [7]; [19],-VE
same,Cytotoxicity HepG2 48 hrs,HepG2 [8]; [19],-VE
CNCCc1ccccn1 [betahistine],Structural based (HCI),"human hepatocytes; In vitro Assay, ref Xu 2008",-VE
same,hLiMTs ATP <20 x Cmax,"PHH spheroids; In vitro Assay, ref Vorrink 2018",-VE
same,In vivo DILI,[6]; ref Khetani 2012,+VE
same,In vivo DILI,[6]; ref Vorrink 2018,+VE
same,In vivo DILI,[6]; ref Xu 2008,+VE
same,HMPCC's,hu-MPCC; [20],-VE
same,RMPCC's,RMPCC's; [20],-VE
COc1ccc2c(c1)[C@]13CCCC[C@@H]1[C@H](C2)N(C)CC3 [dextromethorphan],"DILI +VE (5-8), DILI -VE (-4)",[3]; ref Chen 2016,-VE
same,DILI severity category,[3]; ref Chen 2016,vNo-DILI-Concern
same,Structural based (HCI),"human hepatocytes; In vitro Assay, ref Xu 2008",-VE
same,In vivo DILI,[6]; ref Khetani 2012,-VE
same,In vivo DILI,[6]; ref Xu 2008,-VE
same,HMPCC's,hu-MPCC; [20],-VE
same,RMPCC's,RMPCC's; [20],-VE
C[S+](C)[O-] [dimethylsulfoxide],In vivo DILI,[6]; in vivo,-VE
same,Cytotoxicity PHH 48 hrs,PHH [7],-VE
same,Cytotoxicity HepG2 48 hrs,HepG2 [8],-VE
CCO [ethanol],Cytotoxicity PHH 48 hrs,PHH [7],+VE
same,Cytotoxicity HepG2 48 hrs,HepG2 [8],+VE
"OC[C@H]1OC(O)[C@H](O)[C@@H](O)[C@@H]1O (stereo partly shown) [glucose, reference compound]",Cytotoxicity PHH 48 hrs,PHH [7]; [19],+VE
same,Cytotoxicity HepG2 48 hrs,HepG2 [9]; [19],+VE
NC(=O)NO [hydroxyurea],"DILI +VE (5-8), DILI -VE (-4)",[3]; ref Chen 2016,+VE
same,DILI severity category,[3]; ref Chen 2016,vMost-DILI-Concern
same,Structural based (HCI),human hepatocytes,-VE
same,In vivo DILI,[6]; in vivo,+VE
same,HMPCC's,hu-MPCC,+VE
same,RMPCC's,RMPCC's,+VE
COc1ccc2[nH]cc(CCNC(C)=O)c2c1 [melatonin],Structural based (HCI),"human hepatocytes; In vitro Assay, ref Xu 2008",-VE
same,Cytotoxicity PHH 48 hrs,PHH [7]; [19],-VE
same,Cytotoxicity HepG2 48 hrs,HepG2 [8]; [19],-VE
COC(=O)c1ccc(O)cc1 [methylparaben],In vivo DILI,[6]; in vivo,-VE
same,Cytotoxicity PHH 48 hrs,PHH [7],-VE
same,Cytotoxicity HepG2 48 hrs,HepG2 [9],-VE
"CO[C@H]1/C=C/O[C@@]2(C)Oc3c(C)c(O)c4c(O)c(c(/C=N/N5CCN(C)CC5)c(O)c4c3C2=O)NC(=O)/C(C)=C\C=C\[C@H](C)[C@H](O)[C@@H](C)[C@@H](O)[C@@H](C)[C@H](OC(C)=O)[C@@H]1C [rifampicin, reference compound]",Cytotoxicity HepG2 48 hrs,HepG2 [10],+VE
same,Structural based (HCI),HepG2 cells [4],+VE
same,Structural based (HCI),HepG2 cells [5],+VE
same,"DILI in vitro assay prediction, Vorrink (2018)","PHH spheroids; PHH spheroids, ATP, 14 days, IC20 < 20 × Cmax.tot, ref Vorrink et al. 2018",identified
same,In vivo DILI,[6]; ref Albrecht 2019,+VE
same,In vivo DILI,[6]; ref Dawson 2012,+VE
same,In vivo DILI,[6]; ref Gustafsson 2014,+VE
same,In vivo DILI,[6]; ref O'Brien 2006,+VE
same,In vivo DILI,[6]; ref Porceddu 2012,+VE
same,In vivo DILI,[6]; ref Schadt 2015,+VE
same,In vivo DILI,[6]; ref Tolosa 2012,+VE
same,Cytotoxicity PHH 48 hrs,PHH [7]; [19],+VE
same,DILI identification by high-throughput transcriptomics,"HepaRG cells; HepaRG cells, BMCs in relation to 10 × human Cmax.tot, ref National Toxicology Program",identified
same,in vitro data EC2<=1x Cmax,[11],+VE
same,in vitro data EC20<=2uM,[11],-VE
same,Inhibition of rBsep cutoff<1& cmax u>.2,rBsep,+VE
same,Inhibition of rBsep cutoff<3,rBsep,+VE
Oc1cc(Cl)ccc1Oc1ccc(Cl)cc1Cl [triclosan],In vivo DILI,[6]; ref Albrecht 2019,-VE
same,Cytotoxicity PHH 48 hrs,PHH [7]; [19],-VE
same,Cytotoxicity HepG2 48 hrs,HepG2 [9]; [19],+VE
N[C@@H]1[C@H]2CN(c3nc4c(cc3F)c(=O)c(C(=O)O)cn4-c3ccc(F)cc3F)C[C@@H]12 [trovafloxacin],"Human plasma Cmax,u",[12],1.205 µM
same,"DILI +VE (5-8), DILI -VE (-4)",[3]; in vivo,+VE
same,DILI severity category (Chen et al. [2016]),[3]; in vivo,Most
same,"DILI in vitro assay prediction, Schadt (2015)","[13]; BSEP & Metabolism based, ref Schadt et al. 2015",-VE
same,Cellular toxicity (3T3 cells),[13]; [21],-VE
same,Combined Assay,[13]; [21],-VE
same,GSH adduct HML,[13]; [21],-VE
same,Hepatocyte cellular toxicity,[13]; [21],-VE
same,MitoTox 3T3,[13]; [21],-VE
same,TDI CYP3A4,[13]; [21],-VE
same,hBSEP inhibition,[13]; [21],-VE
same,Structural based (HCI),human hepatocytes,+VE
same,"Rule of Two hybrid HRM Score ≥3, Aleo (2019)",[1],+VE (key: +VE: Rule of Two hybrid HRM Score ≥3)
same,"Rule of Two hybrid HRM Score ≥8, Aleo (2019)",[1],-VE
same,PHH ATP <100uM,PHH [14],-VE
same,"PHH/100uM, Proctor (2017)",PHH [14],-VE
same,hLiMTs ATP <100uM,hLiMTs [15],-VE
same,"hLiMTs/100uM, Proctor (2017)",hLiMTs [15],-VE
same,"DILI in vitro assay prediction, Vorrink (2018)",PHH spheroids,identified
same,Cmax,[16],5.02 µM
same,fu,[17],0.240
same,Assigned DILI category,[6]; in vivo,3
same,In vivo DILI,[6]; in vivo,+VE
same,DILI identification by high-throughput transcriptomics,HepaRG cells,identified
same,AC50,hLiMTs [18]; read-out: ATP endpoint AC50,29.4 µM
same,minimal effective concentration,hLiMTs [18]; read-out: ATP endpoint MEC,16.4 µM
same,AC50,hLiMTs [18]; read-out: HCS endpoint AC50,38.9 µM
same,minimal effective concentration,hLiMTs [18]; read-out: HCS endpoint MEC,20.1 µM
same,DILI prediction hLiMTs (HCS-MEC),hLiMTs [18]; [22],+VE (MEC < 25 × Cmax.tot cut-off)
same,hLiMTs <25x Avg Cmax ATP,"hLiMTs [18]; hLiMTs, ATP endpoint, cut-off <25x Avg Cmax",+ve
same,hLiMTs <100x Avg Cmaxu ATP,"hLiMTs [18]; hLiMTs, ATP endpoint, cut-off <100x Avg Cmaxu",+ve (<100x Avg Cmaxu)
same,hLiMTs <25x Avg Cmax HCS,"hLiMTs [18]; hLiMTs, HCS endpoints, cut-off <25x Avg Cmax",+ve
same,hLiMTs <100x Avg Cmaxu HCS,"hLiMTs [18]; hLiMTs, HCS endpoints, cut-off <100x Avg Cmaxu",+ve (<100x Avg Cmaxu)
same,hLiMTs <25x Avg Cmax All,"hLiMTs [18]; hLiMTs, all endpoints (ATP and HCS), cut-off <25x Avg Cmax",+ve
same,hLiMTs Cmax max All,"hLiMTs [18]; hLiMTs, all endpoints, Cmax max used",+ve
same,hLiMTs Cmax min All,"hLiMTs [18]; hLiMTs, all endpoints, Cmax min used",+ve
same,hLiMTs <10 uM All,"hLiMTs [18]; hLiMTs, all endpoints, cut-off <10 uM",-ve
same,hLiMTs <100x Avg Cmaxu All,"hLiMTs [18]; hLiMTs, all endpoints, cut-off <100x Avg Cmaxu",+ve (<100x Avg Cmaxu)
same,HepaRG <25x Avg Cmax ATP,"HepaRG spheroids; HepaRG, ATP endpoint, cut-off <25x Avg Cmax",+ve
same,HepaRG <100x Avg Cmaxu ATP,"HepaRG spheroids; HepaRG, ATP endpoint, cut-off <100x Avg Cmaxu",+ve (<100x Avg Cmaxu)
same,HepaRG <25x Avg Cmax HCS,"HepaRG spheroids; HepaRG, HCS endpoints, cut-off <25x Avg Cmax",+ve
same,HepaRG <100x Avg Cmaxu HCS,"HepaRG spheroids; HepaRG, HCS endpoints, cut-off <100x Avg Cmaxu",+ve (<100x Avg Cmaxu)
same,HepaRG <25x Avg Cmax All,"HepaRG spheroids; HepaRG, all endpoints (ATP and HCS), cut-off <25x Avg Cmax",+ve
same,HepaRG Cmax max All,"HepaRG spheroids; HepaRG, all endpoints, Cmax max used",+ve
same,HepaRG Cmax min All,"HepaRG spheroids; HepaRG, all endpoints, Cmax min used",+ve
same,HepaRG <10 uM All,"HepaRG spheroids; HepaRG, all endpoints, cut-off <10 uM",+ve (<10 uM)
same,HepaRG <100x Avg Cmaxu All,"HepaRG spheroids; HepaRG, all endpoints, cut-off <100x Avg Cmaxu",+ve (<100x Avg Cmaxu)
same,AC50,"HepaRG spheroids; HepaRG, read-out: ATP endpoint AC50",12.9 µM
same,minimal effective concentration,"HepaRG spheroids; HepaRG, read-out: ATP endpoint MEC",7.27 µM
same,AC50,"HepaRG spheroids; HepaRG, read-out: HCS endpoint AC50",24.9 µM
same,minimal effective concentration,"HepaRG spheroids; HepaRG, read-out: HCS endpoint MEC",17.5 µM
same,DILI prediction HepaRG spheroids (HCS-MEC),HepaRG spheroids; [22],+VE (MEC < 25 × Cmax.tot cut-off)
